Experimental data published in publication PMC5715404, “Design, Synthesis, and Evaluation of Ribose-Modified Anilinopyrimidine Derivatives as EGFR Tyrosine Kinase Inhibitors” (Frontiers in Chemistry, 2017).
Entries after “also recorded” stand apart in the source; their conditions may differ.

Assays:
[1] = biological target: T1, EGFR WT (Homo sapiens, UniProt P00533); test: ELISA-based EGFR-TK kinase assay, EGFR WT; format: biochemical; details: 10 μmol/L ATP solution, 37°C 1 h, mean ± SD of at least two determinations, read-out: EGFR tyrosine kinase IC50, EGFR
T1 construct: Kinases domain of EGFR WT and EGFR L858R/T790M were expressed; made in house; host or cells: baculovirus expression system (Bac-to-Bac)
T1 sequence (P00533 712-979 limits assumed): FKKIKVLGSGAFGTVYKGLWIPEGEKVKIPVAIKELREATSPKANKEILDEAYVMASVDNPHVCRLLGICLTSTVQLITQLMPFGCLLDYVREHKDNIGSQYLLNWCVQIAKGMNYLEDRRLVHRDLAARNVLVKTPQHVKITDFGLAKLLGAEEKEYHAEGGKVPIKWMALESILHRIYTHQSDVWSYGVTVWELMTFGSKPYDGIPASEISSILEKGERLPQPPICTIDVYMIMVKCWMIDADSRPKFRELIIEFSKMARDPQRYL
Protocol: (§1) Kinases domain of EGFR WT and EGFR L858R/T790M were expressed using the Bac-to-Bac™ baculo virus expression system (Invitrogen, Carlsbad, CA, USA) and purified in Ni-NTA columns (QIAGEN Inc., Valencia, CA, USA). The kinase activity was evaluated with enzyme-linked immunosorbent assay (ELISA). Briefly, 20 μg/mL Poly (Glu, Tyr) 4:1 (Sigma, St. Louis, MO) was precoated in 96-well ELISA plates as substrate. After adding 50 μL of 10 μmol/L ATP solution which was diluted in kinase reaction buffer (50 mM HEPES pH 7.4, 20 mM MgCl2, 0.1 mM MnCl2, 0.2 mM Na3VO4, 1 mM DTT), the plate was treated with 1 μL of indicated concentrations of compounds (dissolved in DMSO) per well. Experiments at each concentration were performed in duplicate. Reaction was initiated by adding tyrosine kinase diluted in kinase reaction buffer. After incubation at 37°C for 1 h, the wells were washed three times with phosphate buffered saline (PBS) containing 0.1% Tween 20 (T-PBS). One hundred microliters of anti-phosphotyrosine (PY99) antibody (1:1,000, Santa Cruz Biotechnology, Santa Cruz, CA) diluted in T-PBS containing 5 mg/mL BSA was added and the plate was incubated at 37°C for 30 min. After the plate was washed three times, 100 μL horseradish peroxidase-conjugated goat anti-mouse IgG (1:2,000, Calbiochem, SanDiego, CA) was added and the plate was incubated at 37°C for 30 min. The plate was washed, added with 100 μL citrate buffer (0.1 M, pH 5.5) containing 0.03% H2O2. Then 2 mg/mL o-phenylenediamine was added, and samples were incubated at room temperature until color emerged. The reaction was terminated immediately by adding 50 μL of 2 M H2SO4. Plate was read using a multiwell spectrophotometer (VERSAmax™, Molecular Devices, Sunnyvale, CA, USA) at 492 nm. The inhibitory rate (%) was calculated with the formula: [1 − (A492 treated/A492 control)] × 100%. IC50 values were calculated from the inhibitory curves.

[2] = biological target: T2, EGFR L858R/T790M (Homo sapiens, UniProt P00533, L858R/T790M); test: ELISA-based EGFR-TK kinase assay, EGFR L858R/T790M; format: biochemical; details: for selectivity for EGFR L858R/T790M over WT EGFR (in words): EGFR L858R/T790M versus WT EGFR; for IC50 / inhibitory activity against EGFR tyrosine kinases (in words): ELISA; for IC50: 10 μmol/L ATP solution, 37°C 1 h, mean ± SD of at least two determinations, read-out: EGFR tyrosine kinase IC50, EGFR T790M/L858R; for inhibitory activity against EGFR tyrosine kinases (in words): EGFR WT and EGFR L858R/T790M
T2 construct: Kinases domain of EGFR WT and EGFR L858R/T790M were expressed; made in house; host or cells: baculovirus expression system (Bac-to-Bac)
T2 sequence (P00533 712-979 T790M/L858R limits assumed): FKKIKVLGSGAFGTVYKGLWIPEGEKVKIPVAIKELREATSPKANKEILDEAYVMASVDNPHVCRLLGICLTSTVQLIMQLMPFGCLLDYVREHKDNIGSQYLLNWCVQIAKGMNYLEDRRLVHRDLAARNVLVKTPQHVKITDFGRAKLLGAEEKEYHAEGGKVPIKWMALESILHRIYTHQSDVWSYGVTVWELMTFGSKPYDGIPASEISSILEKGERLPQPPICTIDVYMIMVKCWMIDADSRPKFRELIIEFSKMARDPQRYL
Protocol: as §1

SMILES | IC50 [1] | selectivity for EGFR L858R/T790M over WT EGFR (in words) [2] | IC50 [2] | inhibitory activity against EGFR tyrosine kinases (in words) [2]
C=CC(=O)N[C@H]1[C@H]2OC(C)(C)O[C@H]2O[C@@H]1COc1nc(Nc2ccc(N3CCN(C)CC3)cc2OC)ncc1Cl [Compound 1a, 1,2-O-isopropylidene-3-N-acryloyl-3-deoxy-5-O-[5-chloro-2-N-(2-methoxy-4-(4-methylpiperazin-1-yl)phenyl)pyrimidin-4-yl]-α-D-ribofuranoside] | > 10 µM | potent and specific inhibitory activity; also recorded: good selectivity | 0.62 µM | –
C=CC(=O)N[C@@H]1[C@@H](COc2nc(Nc3ccc(N4CCN(C)CC4)cc3OC)ncc2Cl)OC(O)[C@@H]1O (stereo partly drawn) [Compound 1b, 3-N-acryloyl-3-deoxy-5-O-[5-chloro-2-N-(2-methoxy-4-(4-methylpiperazin-1-yl)phenyl)pyrimidin-4-yl]-D-ribofuranose] | > 10 µM | specific inhibitory activity | 2.64 µM | –
C=CC(=O)NC1O[C@H](COc2nc(Nc3ccc(N4CCN(C)CC4)cc3OC)ncc2Cl)[C@@H](O)[C@H]1O (stereo partly drawn) [Compound 1c, 5-O-[5-chloro-2-N-(2-methoxy-4-(4-methylpiperazin-1-yl)phenyl)pyrimidin-4-yl]-D-ribofuranosyl acrylamide] | > 10 µM | – | > 10 µM | no inhibitory activities; also recorded: no inhibitory activity
C=CC(=O)N[C@H]1O[C@H](CO)[C@@H](Oc2nc(Nc3ccc(N4CCN(C)CC4)cc3OC)ncc2Cl)[C@H]1O[Si](C)(C)C(C)(C)C [Compound 1d, 3-O-[5-chloro-2-N-(2-methoxy-4-(4-methylpiperazin-1-yl)phenyl)pyrimidin-4-yl]-2-O-tert-butyldimethylsilyl-α-D-ribofuranosyl acrylamide] | > 10 µM | – | > 10 µM | no inhibitory activities; also recorded: no inhibitory activity
COc1cc(N2CCN(C)CC2)ccc1Nc1ncc(Cl)c(OC[C@H]2O[C@@H](N=[N+]=[N-])[C@H](O)[C@@H]2O)n1 [Compound 24] | > 10 µM | – | > 10 µM | –
COc1cc(N2CCN(C)CC2)ccc1Nc1ncc(Cl)c(O[C@H]2[C@@H](O[Si](C)(C)C(C)(C)C)[C@H](N=[N+]=[N-])O[C@@H]2CO)n1 [Compound 25] | > 10 µM | – | > 10 µM | –
COc1cc(N2CCN(C)CC2)ccc1Nc1ncc(Cl)c(OC[C@H]2OC(O)[C@H](O)[C@@H]2O)n1 (stereo partly drawn) [Compound 26] | > 10 µM | – | > 10 µM | –
